These results are taken from US20250026765A1, “SPIROHETEROCYCLE DERIVATIVE HAVING SEROTONIN RECEPTOR BINDING ACTIVITY” (Shionogi & Co., Ltd., priority 2021, published 2025).

Data set [1] has as its target human recombinant 5-HT2C receptor (Homo sapiens (Human), UniProt P28335). The experiment in a line: 5-HT2C receptor binding inhibition test ([3H]-Mesulergine). The settings on record: Jump-In HEK cell membrane, 37° C. 2 hours. Summed up:
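Radioligand displacement on HEK membranes expressing human recombinant 5-HT2C (0.5 μg/well), [3H]-mesulergine near its Kd, in pH 7.4 Tris-HCl buffer with NaCl, MgCl2, KCl, CaCl2 and 0.1% BSA, 2 h at 37° C. Bound radioactivity measured after GF/B filtration; non-specific binding defined with 500 μmol/L serotonin, Ki from dose-response curve.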

Data set [2] addresses CYP3A4 (Homo sapiens (Human), UniProt P08684). The experiment in a line: CYP3A4 (MDZ) MBI test. The format is in vitro ADME. The settings on record: pooled human liver microsomes, midazolam 1-hydroxylation, pre-reaction 0 or 30 minutes. How it is done: Test Example 8: CYP3A4 (MDZ) MBI Test
This test is a test to evaluate mechanism based inhibition (MBI) potency from enhancement of CYP3A4 inhibition of the compound of the present invention by a metabolism reaction. CYP3A4 inhibition is evaluated using pooled human liver microsomes by 1-hydroxylation reaction of midazolam (MDZ) as a marker reaction.
The reaction conditions are as follows: substrate, 10 μmol/L MDZ; pre-reaction time, 0 or 30 minutes; reaction time, 2 minutes; reaction temperature, 37° C.; pooled human liver microsomes, at pre-reaction 0.5 mg/mL, at reaction 0.05 mg/mL (at 10-fold dilution); concentrations of the compound of the present invention, 0.83, 5, 10, 20 μmol/L (four points).
Pooled human liver microsomes and a solution of the compound of the present invention in K-Pi buffer (pH 7.4) as a pre-reaction solution are added to a 96-well plate at the composition of the pre-reaction. A part of pre-reaction solution is transferred to another 96-well plate, and 1/10 diluted by K-Pi buffer containing a substrate. NADPH as a co-factor is added to initiate a reaction as a marker reaction (without preincubation). After a predetermined time of a reaction, methanol/acetonitrile=1/1 (V/V) solution is added to stop the reaction. In addition, NADPH is added to a remaining pre-reaction solution to initiate a pre-reaction (with preincubation). After a predetermined time of a pre-reaction, a part is transferred to another plate, and 1/10 diluted by K-Pi buffer containing a substrate to initiate a reaction as a marker reaction. After a predetermined time of a reaction, methanol/acetonitrile=1/1 (V/V) solution is added to stop the reaction. Each plate where the marker reaction has been performed is centrifuged at 3000 rpm for 15 minutes. Then, midazolam 1-hydroxide in the centrifuged supernatant is quantified by LC/MS/MS.
Only DMSO which is a solvent dissolving the compound of the present invention added to a reaction system is adopted as a control (100%). Remaining activity (%) is calculated at each concentration of the compound of the present invention added. IC is calculated by reverse-presumption by a logistic model using a concentration and an inhibition rate. Shifted IC value is calculated as “IC of preincubation at 0 min/IC of preincubation at 30 min”. When a shifted IC is 1.5 or more, this is defined as positive. When a shifted IC is 1.0 or less, this is defined as negative.

[3] abbreviates: read-out: human serotonin 5-HT2C receptor binding activity Ki.

Where two headings read alike, the source gives them in different places.

Sequence of CYP3A4 (P08684 whole entry): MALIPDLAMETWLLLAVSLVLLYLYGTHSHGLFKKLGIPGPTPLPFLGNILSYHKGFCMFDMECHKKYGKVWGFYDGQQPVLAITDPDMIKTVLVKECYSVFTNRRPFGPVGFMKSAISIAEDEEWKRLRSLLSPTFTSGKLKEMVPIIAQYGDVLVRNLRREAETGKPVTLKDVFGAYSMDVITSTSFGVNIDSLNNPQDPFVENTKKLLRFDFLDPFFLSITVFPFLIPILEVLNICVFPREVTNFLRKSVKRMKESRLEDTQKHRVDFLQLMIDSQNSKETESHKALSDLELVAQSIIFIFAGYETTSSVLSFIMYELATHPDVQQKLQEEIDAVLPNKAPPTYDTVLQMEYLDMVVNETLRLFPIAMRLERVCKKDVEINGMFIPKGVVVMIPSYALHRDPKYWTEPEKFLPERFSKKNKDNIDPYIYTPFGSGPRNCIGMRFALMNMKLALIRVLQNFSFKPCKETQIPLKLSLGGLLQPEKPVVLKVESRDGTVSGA
Sequence of human recombinant 5-HT2C receptor (P28335 33-458): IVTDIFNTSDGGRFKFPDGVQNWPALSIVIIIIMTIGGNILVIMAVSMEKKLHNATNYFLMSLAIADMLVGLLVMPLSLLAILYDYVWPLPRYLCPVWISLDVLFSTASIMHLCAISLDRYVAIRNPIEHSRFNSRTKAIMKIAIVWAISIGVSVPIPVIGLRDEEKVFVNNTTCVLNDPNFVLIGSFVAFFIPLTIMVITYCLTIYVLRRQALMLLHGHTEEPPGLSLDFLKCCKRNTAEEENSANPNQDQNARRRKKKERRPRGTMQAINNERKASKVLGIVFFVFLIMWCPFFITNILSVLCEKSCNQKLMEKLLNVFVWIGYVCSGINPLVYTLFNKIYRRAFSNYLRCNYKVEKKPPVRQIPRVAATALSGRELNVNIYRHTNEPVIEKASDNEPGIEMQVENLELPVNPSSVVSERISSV

In the case of `CC(C)COc1ccc(CN(Cc2coc(CF)n2)C2=NOC3(CCN(C)CC3)N2)cc1` [Compound I-067], the Ki is below 10 nM in data set [1] (read-out: h-5-HT2C Ki) and 0.95 nM in data set [1] (setting [3]). The “CYP3A4 (MDZ) MBI (shifted IC)” value in data set [2] was “Negative (When a shifted IC is 1.0 or less, this is defined as negative)”.

On to `CCCCOc1ccc(CN(Cc2coc(C)n2)C2=NOC3(CCN(C)CC3)N2)cc1` [Compound I-080], for which the Ki in data set [1] (read-out: h-5-HT2C Ki) was below 10 nM; in data set [1] (setting [3]), 0.579 nM. Also, in data set [2], the “CYP3A4 (MDZ) MBI (shifted IC)” value is given as “Negative (When a shifted IC is 1.0 or less, this is defined as negative)”.

On to `Cc1nc(CN(Cc2ccc(OCC(F)(F)C(F)(F)F)cc2F)C2=NOC3(CCN(C)CC3)N2)co1` [Compound I-104], for which the Ki in data set [1] (setting [3]) is 0.578 nM. Further, the “CYP3A4 (MDZ) MBI (shifted IC)” value in data set [2] is recorded as “Negative (When a shifted IC is 1.0 or less, this is defined as negative)”.

Take `CCCCOc1ccc(CN(Cc2coc(CF)n2)C2=NOC3(CCN(C)CC3)N2)cc1` [Compound I-105]: in data set [1] (setting [3]), the Ki came out at 1.13 nM. The “CYP3A4 (MDZ) MBI (shifted IC)” value in data set [2] was “Negative (When a shifted IC is 1.0 or less, this is defined as negative)”.

As to `CCCCOc1ccc(CN(Cc2cnn(C)n2)C2=NOC3(CCN(C)CC3)N2)cc1` [Compound I-113], in data set [1] (setting [3]), the Ki worked out at 1.6 nM. The “CYP3A4 (MDZ) MBI (shifted IC)” value in data set [2] is reported as “Negative (When a shifted IC is 1.0 or less, this is defined as negative)”.

On to `CCCCOc1ccc(CN(Cc2coc(C)n2)C2=NOC3(CCN(C)CC3)N2)c(F)c1` [Compound I-114], for which, in data set [1] (setting [3]), the Ki amounted to 0.543 nM. Also, the “CYP3A4 (MDZ) MBI (shifted IC)” value in data set [2] is “Negative (When a shifted IC is 1.0 or less, this is defined as negative)”.

As to `CCCCOc1ccc(CN(Cc2coc(C)n2)C2=NOC3(CCN(C)CC3)N2)cc1F` [Compound I-115], the Ki in data set [1] (setting [3]) came out at 0.469 nM. Also, the “CYP3A4 (MDZ) MBI (shifted IC)” value in data set [2] is “Negative (When a shifted IC is 1.0 or less, this is defined as negative)”.

As to `Cc1nc(CN(Cc2ccc(CCC(F)(F)F)cc2)C2=NOC3(CCN(C)CC3)N2)co1` [Compound I-125], the inhibition constant Ki in data set [1] (setting [3]) turned out to be 0.694 nM. Further, the “CYP3A4 (MDZ) MBI (shifted IC)” value in data set [2] is reported as “Negative (When a shifted IC is 1.0 or less, this is defined as negative)”.

Take `Cc1nc(CN(Cc2ccc(OCC(C)C)cc2F)C2=NOC3(CCN(C)CC3)N2)co1` [Compound I-128]: in data set [1] (setting [3]), the Ki stood at 0.374 nM. Further, the “CYP3A4 (MDZ) MBI (shifted IC)” value in data set [2] is “Negative (When a shifted IC is 1.0 or less, this is defined as negative)”.
